Test results taken from patent US8252832B2, “Kinesin inhibitors as cancer therapeutics” (Novartis AG, priority 2007, dated 2012).

Experiments:
Assay in all cases: Caspase-Glo 3/7 assay
Type in all cases: cell-based
Colo-205 = conditions: Homo sapiens
From the text: (§1) Identification of tumor types that are the most sensitive to the KSP inhibitors of the present invention can be accomplished using an unbiased approach that uses several cell-based assays. The assays chosen were as follows: • CellTiter-Glo®. This is an assay designed to measure ATP concentration in a cell culture, and can be correlated to cell number. Briefly CellTiter-Glo® (Promega Corporation) is a homogeneous method using the single CellTiter-Glo® reagent to detect ATP wherein ATP in the assay drives the activity of a thermostable luciferase to create a luminescent signal which can then be measured and correlated with the number of viable cells. Briefly, for adherent cells, 1,000 to 5,000 cells/well were plated in 96-well plates (100 μl/well) and let to adhere for 24 hours before being treated with drug. For non-adherent cells, 1,000 to 10,000 cells/well were plated in 96-well plates (100 μl/well) and immediately treated with drug. Drug dilutions were prepared in DMSO at 1000 times the final concentration. These dilutions were then diluted 1/100 in growth media before being added to the cells (11 μl/well) to achieve the desired final concentration. After 48 h in a 37° C. tissue culture incubator, the plates were processed for the CellTiter-Glo®assay according to the manufacturer's instructions. Protocol for a 72 hour cell proliferation assay: The 72 hour assay was performed the same way as the 48 hour assay except for the following modifications: For adherent cells, 500 to 5,000 cells/well were plated in 96-well plates (90 μl/well cell growth media) and left to adhere for 24 hours before being treated with drug. For non-adherent cells, 1,000 to 10,000 cells/well were plated in 96-well plates (90 μl/well cell growth media) and immediately treated with drug. Data values presented represent the concentration of test compound required for a 50% reduction in growth. • LDH release. The Cytotoxicity Detection KitPLUS (LDH) assay (Roche Diagnostics, Manheim, Germany) measures the amount of LDH released in the media by dying cells; LDH catalyzes the conversion of lactate into pyruvate. The enzymatic reaction is coupled to a chemical reaction that uses a tetrazolium salt to form a formazan that is red and can be detected by its absorbance at 490 nm. This assay measures the amount of cell death after drug treatment. Cells were plated at 10,000 cells/well in 96-well plates (100 μl/well). Adherent cells were let to adhere for 24 hours before being treated with drug, whereas non-adherent cells were immediately treated with drug. Drug dilutions were prepared in DMSO at 1000 times the final concentration. These dilutions were then diluted 1/100 in growth media before being added to the cells (11 μl/well) to achieve the desired final concentration. After 48 h in a 37° C. tissue culture incubator, the plates were processed for the Cytotoxicity Detection KitPLUS (LDH) assay according to the manufacturer's instructions. The media only values were subtracted from all the data points before analysis. Data values presented correspond to the compound concentration wherein LDH output is at half maximal level. • Caspase-Glo® 3/7. The Caspase-Glo® 3/7 Assay (Promega Corporation) is a homogeneous luminescent assay that measures caspase-3/7 activities. The assay provides a proluminescent caspase-3/7 DEVD-aminoluciferin substrate and a thermostable luciferase in a reagent optimized for caspase-3/7 activity, luciferase activity and cell lysis. Adding the single Caspase-Glo® 3/7 Reagent results in cell lysis, followed by caspase cleavage of the substrate. This liberates free aminoluciferin, which is consumed by the luciferase, generating a luminescent signal. The signal is proportional to caspase-3/7 activity. Data values presented correspond to the compound concentration wherein caspase 3/7 activity is at half maximal level.

HCT-116 = conditions: Homo sapiens
From the text: as §1

MV4; 11 = conditions: Homo sapiens
From the text: as §1

T47-D = conditions: Homo sapiens, T47D
From the text: as §1

## CC(C)(C)[C@H](c1nc(-c2cc(F)ccc2F)cn1Cc1ccccc1)N(CC[C@H](N)CF)C(=O)CO [Compound IIa]
Colo-205; Colo-205, 24 h
  EC50: 0.13 nM
Colo-205; Colo-205, 48 h
  EC50: 0.21 nM
Colo-205; Colo-205, 72 h
  EC50: 0.19 nM
HCT-116; HCT-116, 24 h
  EC50: 0.12 nM
HCT-116; HCT-116, 48 h
  EC50: 0.09 nM
MV4; 11; MV4;11, 24 h
  EC50: 0.02 nM
MV4; 11; MV4;11, 48 h
  EC50: 0.03 nM
T47-D; 48 h
  EC50: 0.39 nM
T47-D; 72 h
  EC50: 0.4 nM
